pIC50: −log10 of the molar value. ≈ marks a conversion by molar mass, not a printed value. Where two headings read alike, the source gives them in different places.

Among the data in patent publication US20250129096A1, “ANNULATED 2-AMINO-3-CYANO THIOPHENES AND DERIVATIVES FOR THE TREATMENT OF CANCER” (Boehringer Ingelheim Int'l GmbH Corp., priority 2021, published 2025) are IC50, GI50 and solubility values, retold here.

For one data set, the target named is T1, KRAS (G12C)::SOS1 (Homo sapiens, UniProt P01116, C118S/C51S/C80L/G12C).
T1 construct: KRAS (G12C) 1-169, N-terminal 6His-tag for purification, cleaved off; 6His-tag (N, cleaved yes)
Briefly: KRAS::SOS1 AlphaScreen binding assay, KRAS G12C. (In general: Bead proximity is the source of the signal in Alpha formats.)

A further data set has as its target KRAS G12D Ba/F3 cells (Homo sapiens, UniProt P01116, G12D, cells depend on it). Briefly: Ba/F3 proliferation assay, KRAS G12D. It is filed as cell-based. To be noted: 72 h, AlamarBlue; read-out: KRAS G12D Ba/F3 IC50.
In another data set the target is KRAS G12C Ba/F3 cells (Homo sapiens, UniProt P01116, G12C, cells depend on it). Briefly: Ba/F3 proliferation assay, KRAS G12C. It is filed as cell-based. To be noted: 72 h, AlamarBlue; read-out: KRAS G12C Ba/F3 IC50. On the technique in general: Resazurin is reduced to fluorescent resorufin, in cell work by metabolically active cells.
The next data set addresses KRAS G12V Ba/F3 cells (Homo sapiens, UniProt P01116, G12V, cells depend on it). In words: Ba/F3 proliferation assay, KRAS G12V. It is filed as cell-based. To be noted: 72 h, AlamarBlue; read-out: KRAS G12V Ba/F3 IC50. How it is done: To generate KRASG12-dependent Ba/F3 models, Ba/F3 cells are transduced with retroviruses containing vectors that harbor KRASG12 isoforms. Platinum-E cells (Cell Biolabs) are used for retrovirus packaging. Retrovirus is added to Ba/F3 cells. To ensure infection, 4 μg/mL polybrene is added and cells are spinfected. […] Cells with an infection efficiency of 10% to 20% are further cultivated and puromycin selection with 1 μg/mL is initiated. As a control, parental Ba/F3 cells are used to show selection status. Selection is considered successful when parental Ba/F3 cells cultures died. To evaluate the transforming potential of KRASG12 mutations, the growth medium is no longer supplemented with IL-3. Ba/F3 cells harboring the empty vector are used as a control. Approximately ten days before conducting the experiments, puromycin is left out. […] All treatments are performed in technical duplicates. […] AlamarBlue™(ThermoFisher), a viability stain, is added and fluorescence measured in the PerkinElmer Envision HTS Multilabel Reader. The raw data are imported into and analyzed with the Boehringer Ingelheim proprietary software MegaLab (curve fitting based on the program PRISM, GraphPad Inc.).

Data set [1] deals with NCI-H2122 cells (NSCLC, G12C). Briefly: NCI-H2122 CTG proliferation assay (120 h). Format: cell-based. The settings on record: Homo sapiens, CellTiter-Glo. How it is done:
The CTG assay is designed to measure quantitatively the proliferation of NCI-H2122 cells (ATCC CRL-5985), using the CellTiter Glow Assay Kit (Promega G7571). Cells are grown in RPMI medium (ATCC) supplemented with Fetal Calf Serum (Life Technologies, Gibco BRL, Cat. No. 10270-106). On “day 0” 200 NCI-H2122 cells are seeded in 60 μL RPMI ATCC+10% FCS+ Penstrep in a black 384-well plate, flat and clear bottom (Greiner, PNr. 781091). Cells are then incubated in the plates at 37° C. in a CO2 incubator overnight. On day 1, compounds (10 mM stock in DMSO) are added with the ECHO acoustic liquid handler system (Beckman Coulter), including DMSO controls. Plates are incubated for 120 h, and cell viability is measured using CellTiter-Glo luminescent cell viability reagent (Promega product code G7570). Viability (stated as percent of control) is defined as relative luminescence units RLU of each well divided by the RLU of cells in DMSO controls. IC50 values are determined from viability measurements by non-linear regression using a four-parameter model.

The test system of data set [2] is SAS cells (HNSCC, wt amplified). In words: SAS CTG proliferation assay (120 h). It is filed as cell-based. The settings on record: CellTiter-Glo. Here is the method: SAS cells (JCRB0260) are dispensed into 384-well plates, flat and clear bottom (Greiner, PNr. 781091) at a density of 300 cells per well in 60 μL DMEM:F12 (Gibco 31330-038)+10% Fetal Calf Serum (HyClone, PNr.: SH30084.03) and incubated at 37° C. in a CO2 incubator overnight. The next day, compounds (10 mM stock in DMSO) are added with the ECHO acoustic liquid handler system (Beckman Coulter), including DMSO controls. Plates are incubated for 120 h, and cell viability is measured using CellTiter-Glo luminescent cell viability reagent (Promega product code G7570). Viability (stated as percent of control) is defined as relative luminescence units RLU of each well divided by the RLU of cells in DMSO controls. IC50 values are determined from viability measurements by non-linear regression using a four-parameter model.

Data set [3] can be described thus: Solubility measurement (DMSO solution precipitation method). The settings on record: aqueous buffer, kinetic from dmso stock, ambient temperature. It is filed as physicochemical. Put shortly: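 Compound DMSO solution diluted into McIlvaine buffer (pH 4.5 or 6.8) to 250 μM final, shaken 24 h at ambient temperature. Precipitate removed by filtration. Filtrate concentration measured by LC-UV against a fully dissolved reference in acetonitrile/water (1:1).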

[4] abbreviates: McIlvaine buffer pH 4.5, 24 h, read-out: solubility pH 4.5.
Where [5] appears, read: McIlvaine buffer pH 6.8, 24 h, read-out: solubility pH 6.8.

Chain of KRAS G12V Ba/F3 cells (P01116 whole entry G12V, canonical isoform): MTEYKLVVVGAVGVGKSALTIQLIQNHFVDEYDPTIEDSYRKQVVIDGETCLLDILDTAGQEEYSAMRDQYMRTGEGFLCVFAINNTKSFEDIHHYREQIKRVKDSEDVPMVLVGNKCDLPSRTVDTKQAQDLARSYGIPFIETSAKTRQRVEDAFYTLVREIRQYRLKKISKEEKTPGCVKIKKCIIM
T1 sequence (P01116 1-169 isoform P01116-2 G12C/C51S/C80L/C118S): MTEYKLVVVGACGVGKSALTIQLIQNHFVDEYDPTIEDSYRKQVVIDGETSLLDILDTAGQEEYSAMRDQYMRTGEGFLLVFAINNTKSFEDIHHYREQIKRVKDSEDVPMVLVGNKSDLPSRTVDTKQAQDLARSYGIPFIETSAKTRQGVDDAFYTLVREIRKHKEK
Chain of KRAS G12C Ba/F3 cells (P01116 whole entry G12C, canonical isoform): as the sequence (P01116 whole entry G12V, canonical isoform) above, with V12C counted along it
Chain of KRAS G12D Ba/F3 cells (P01116 whole entry G12D): as the sequence (P01116 whole entry G12V, canonical isoform) above, with V12D counted along it

Consider `C[C@H]1CNCCCN1c1nccc(-c2noc3c2OCCC32CCCc3sc(N)c(C#N)c32)n1` (stereo partly drawn) [IIb-7], for which the pIC50 (as a rule, −log10 of the IC50, conventionally taken in molar units) on KRAS (G12C)::SOS1 was 8.40; in data set [1], 5.71; in data set [2] it was 5.18. In addition, the GI50 turned out to be 123 nM on KRAS G12D Ba/F3 cells, 131 nM at KRAS G12C Ba/F3 cells and 136 nM on KRAS G12V Ba/F3 cells. The solubility (as a rule, the concentration that dissolves in the medium under given conditions) at 24 h was > 103 µg/mL in data set [3] (setting [4]) and > 100 µg/mL in data set [3] (setting [5]).

For the compound `C[C@H](Oc1nccc(-c2onc3c2CCC[C@@]32CCCc3sc(N)c(C#N)c32)n1)[C@@H]1C[C@@H](F)CN1C` [Ie-2], the pIC50 at KRAS (G12C)::SOS1 is 8.30; in data set [1], 5.79; in data set [2], 5.10. For the same compound, the results for the GI50 at KRAS G12D Ba/F3 cells, at KRAS G12C Ba/F3 cells and at KRAS G12V Ba/F3 cells were 66 nM, 155 nM and 106 nM, respectively. For the same compound, the solubility at 24 h was > 125 µg/mL in data set [3] (setting [4]) and 41 µg/mL (≈ 80.6 µM) in data set [3] (setting [5]).

With `CCN1[C@H]2C[C@H]2C[C@H]1[C@H](C)Oc1nccc(-c2onc3c2CCC[C@@]32CCCc3sc(N)c(C#N)c32)n1` [Ie-3], the pIC50 was 8.15 at KRAS (G12C)::SOS1, 5.28 in data set [1] and 6.43 in data set [2]. In addition, the figures for the GI50 on KRAS G12D Ba/F3 cells, on KRAS G12C Ba/F3 cells and on KRAS G12V Ba/F3 cells were 33 nM, 49 nM and 84 nM, respectively. In addition, the solubility at 24 h is > 125 µg/mL in data set [3] (setting [4]) and > 123 µg/mL in data set [3] (setting [5]).
